From US8343458B2, “Probes for in vivo targeting of active cysteine proteases” (The Board of Trustees of the Leland Stanford Junior …, priority 2008, dated 2013)
Several values for one entry are separate records, joined by “and”; a condition that tells them apart may be missing. Identical values can stand only once.

Assays:
cathepsins B and L = experiment: Labeling of intact tumor cells (SDS-PAGE, gel scan); type: cell-based, mouse (C2C12/Ras), human (MDA-MB-435); conditions: C2C12/Ras and MDA-MB-435 cells, 555 KBq probe in culture medium for 2 h
Source text: FIG. 2 is a series of figures which, taken together, show the structure and function of representative in vivo probes. FIG. 2A is a schematic drawing of a chelator—conjugated probe, illustrating several component moieties. FIGS. 2B and 2C are gels showing expression and activity of enzyme targets of such probe, with a radionuclide label attached to the illustrated structure, showing the expression and activity of CB in a mouse myoblast cell line C2C12Ras and human breast cancer cell line MDA-MB-435. […] Cells were pretreated with JPM-OEt (50 μM) (+) or with control DMSO (0.1%) (−) for 2 h and labeled by addition of ^64Cu-Z-FK(DOTA)-AOMK (555 KBq, 15 μCi) to culture medium for 2 h. Cells were collected, lysed and analyzed after SDS-PAGE. The labeled proteases were visualized by scanning of the gel with a Typhoon 9410 imager.
Before applying the radiolabel probe in vivo we first tested the ability of the probe to label multiple tumor cell lines grown in vitro. We initially examined the labeling of the human breast cancer cell line MBA-MB-435 and a mouse myoblastoma cell line that had been transformed by overexpression of the ras oncogene (C2C12/Ras). Both of these cell lines were used for in vivo imaging studies with the NIRF-labeled cysteine cathepsin probes. To confirm earlier studies of these cells using the NIRF probes we labeled them with general Cy5-labeled probe GB123 (FIG. 1C). […] Labeling of the same cells with ^64Cu-Z-FK(DOTA)-AOMK confirmed that the DOTA produced a similar labeling pattern to that observed for the NIRF probe GB123.
C2C12/Ras and MDA-MB-435 cells (0.25 M each well) were seeded in a six-well plate one day before the study. Cells were pretreated with the general papain family protease inhibitor JPM-OEt (50 μM^28) or with control DMSO (0.1%) for 1 h and labeled by addition of ^64Cu-Z-FK(DOTA)-AOMK (555 KBq, 15 μCi) to culture medium for 2 h. Cells was then washed with PBS and lysed. Equal amounts of protein per lane were separated by 12% SDS-PAGE. […] The labeled bands were quantified with ImageJ 1.36b (public domain software from National Institute of Health).

MDA-MB-435 tumors = experiment: Biodistribution in nude mice bearing subcutaneous MDA-MB-435 tumors; type: in vivo, mouse; conditions: for Biodistribution: Blood / Biodistribution: Bone / Biodistribution: Brain / Biodistribution: Heart / Biodistribution: Intestines / Biodistribution: Kidney / Biodistribution: Liver / Biodistribution: Lung / Biodistribution: Muscle / Biodistribution: Pancreas / Biodistribution: Spleen / Biodistribution: Stomach / Biodistribution: Tumor / Tumor/Blood ratio / Tumor/Muscle ratio: MDA-MB-435 tumor mice, i.v. 740 kBq
Description: All animal studies were carried out in compliance with Federal and local institutional rules for the conduct of animal experimentation. Female athymic nude mice (nu/nu) were obtained from Charles River Laboratories (Boston, Mass.) at 7-8 weeks old and kept under sterile conditions. The nude mice were inoculated subcutaneously in the right shoulder with 2×10^6 cultured C2C12/Ras cells or 5×10^6 MDA-MB-435 cells. When the tumors reach 0.5-0.8 cm in diameter, the tumor bearing mice were subjected to in vivo biodistribution studies. For biodistribution studies, the mice bearing C2C12/Ras or MDA-MB-435 tumor xenografts (n=3 for each group) were injected with 740 KBq (20 μCi) of ^64Cu labeled tracer through the tail vein and sacrificed at different time points post injection (p.i.). Tumor and normal tissues of interest were removed and weighed, and their radioactivity was measured in a gamma-counter. The radioactivity uptake in the tumor and normal tissues was expressed as a percentage of the injected radioactive dose per gram of tissue (% ID/g).
We next examined the overall biodistribution of ^64Cu-Z-FK(DOTA)-AOMK using athymic nude mice carrying subcutaneously grafted C2C12/Ras and MDA-MB-435 tumors. […] Importantly, we observed rapid accumulation of radioactivity in the C2C12/Ras tumors expressing high levels of cysteine cathepsins (0.35±0.13% ID/g at 0.5 h p.i.). This activity remained in the tumors resulting in an uptake of 0.27±0.05% ID/g at 24 h p.i. For the MDA-MB-435 tumors with lower cysteine cathepsin expression, tumor uptake was approximately 2 fold lower at each time point relative to the C2C12/Ras tumors (P<0.05). […] The highest radioactivity was found in the liver due to high endogenous expression of various cysteine cathepsins. Moderate renal accumulation was also observed at all times in both tumor models.
Data are expressed as the percentage administered activity (injected dose) per gram of tissue (% ID/g) after intravenous injection of 740 kBq (20 μCi) of ^64Cu-Z-FK(DOTA)-AOMK at 0.5, 2, and 24 h pi (n=3). Significant lower tumor uptake and tumor/blood, tumor/muscle ratio in MDA-MB-435 breast cancer (P<0.05) were observed.

Biodistribution: Blood (MDA-MB-435 tumors; 2 h p.i.): 0.29 ± 0.01 % ID/g
Biodistribution: Bone (MDA-MB-435 tumors; 2 h p.i.): 0.18 ± 0.06 % ID/g
Biodistribution: Brain (MDA-MB-435 tumors; 2 h p.i.): 0.04 ± 0.01 % ID/g
Biodistribution: Heart (MDA-MB-435 tumors; 2 h p.i.): 0.43 ± 0.09 % ID/g
Biodistribution: Intestines (MDA-MB-435 tumors; 2 h p.i.): 1.95 ± 1.24 % ID/g
Biodistribution: Kidney (MDA-MB-435 tumors; 2 h p.i.): 1.11 ± 0.05 % ID/g
Biodistribution: Liver (MDA-MB-435 tumors; 2 h p.i.): 2.64 ± 0.08 % ID/g
Biodistribution: Lung (MDA-MB-435 tumors; 2 h p.i.): 0.72 ± 0.08 % ID/g
Biodistribution: Muscle (MDA-MB-435 tumors; 2 h p.i.): 0.06 ± 0.00 % ID/g
Biodistribution: Pancreas (MDA-MB-435 tumors; 2 h p.i.): 0.25 ± 0.05 % ID/g
Biodistribution: Spleen (MDA-MB-435 tumors; 2 h p.i.): 0.31 ± 0.05 % ID/g
Biodistribution: Stomach (MDA-MB-435 tumors; 2 h p.i.): 0.45 ± 0.07 % ID/g
Biodistribution: Tumor (MDA-MB-435 tumors; 2 h p.i.): 0.18 ± 0.00 % ID/g
Tumor/Blood ratio (MDA-MB-435 tumors; 2 h p.i.): 0.61 and 0.61 ± 0.02
Tumor/Muscle ratio (MDA-MB-435 tumors; 2 h p.i.): 3.03 and 3.03 ± 0.20
Biodistribution: Blood (MDA-MB-435 tumors; 24 h p.i.): 0.28 ± 0.13 % ID/g
Biodistribution: Bone (MDA-MB-435 tumors; 24 h p.i.): 0.20 ± 0.20 % ID/g
Biodistribution: Brain (MDA-MB-435 tumors; 24 h p.i.): 0.05 ± 0.01 % ID/g
Biodistribution: Heart (MDA-MB-435 tumors; 24 h p.i.): 0.42 ± 0.15 % ID/g
Biodistribution: Intestines (MDA-MB-435 tumors; 24 h p.i.): 0.35 ± 0.08 % ID/g
Biodistribution: Kidney (MDA-MB-435 tumors; 24 h p.i.): 0.63 ± 0.08 % ID/g
Biodistribution: Liver (MDA-MB-435 tumors; 24 h p.i.): 1.37 ± 0.19 % ID/g
Biodistribution: Lung (MDA-MB-435 tumors; 24 h p.i.): 0.47 ± 0.08 % ID/g
Biodistribution: Muscle (MDA-MB-435 tumors; 24 h p.i.): 0.06 ± 0.02 % ID/g
Biodistribution: Pancreas (MDA-MB-435 tumors; 24 h p.i.): 0.18 ± 0.11 % ID/g
Biodistribution: Spleen (MDA-MB-435 tumors; 24 h p.i.): 0.31 ± 0.21 % ID/g
Biodistribution: Stomach (MDA-MB-435 tumors; 24 h p.i.): 0.34 ± 0.29 % ID/g
Biodistribution: Tumor (MDA-MB-435 tumors; 24 h p.i.): 0.14 ± 0.05 % ID/g
Tumor/Blood ratio (MDA-MB-435 tumors; 24 h p.i.): 0.54 ± 0.12
Tumor/Muscle ratio (MDA-MB-435 tumors; 24 h p.i.): 2.21 ± 0.34
Tumor uptake in MDA-MB-435 tumors, fold lower relative to C2C12/Ras tumors (MDA-MB-435 tumors; at each time point (2 h, 24 h), P<0.05): approximately 2 fold
Compound: Cc1cccc(C)c1C(=O)OCC(=O)[C@H](CCCCNC(=O)CN1CCN(CC(=O)[O-])CCN(CC(=O)O)CCN(CC(=O)[O-])CC1)NC(=O)[C@H](Cc1ccccc1)NC(=O)OCc1ccccc1.[64Cu+2] [^64Cu-Z-FK(DOTA)-AOMK]
Labeling of active cathepsins in intact cells (cathepsins B and L): efficiently modifies active cathepsins B and L
